Data on 20 compounds can be found in Sander's compilation of Henry's law constants (doi:10.1016/j.ijggc.2017.01.001).

This series can be described thus: Henry solubility constant Hcp at 313 K (mol/(m3 Pa)). The conditions noted are these: reference: Du et al. (2017).
Regarding `CN(CCO)CCO` [N-methyldiethanolamine], the “Henry solubility constant Hcp at 313 K” value was 3300.
Take `COCCCN` [3-methoxy-1-propanamine]: the “Henry solubility constant Hcp at 313 K” value turned out to be 21.
Regarding `CN(C)CCOCCO` [dimethylaminoethoxyethanol], the “Henry solubility constant Hcp at 313 K” value was 830.
Take `CCN(CC)CCO` [2-(diethylamino)ethanol]: the “Henry solubility constant Hcp at 313 K” value stood at 5.9.
Under `COCCNCCOC` [bis(2-methoxyethyl)amine] stands 110.
Under `CN1C2CCC1CC(O)C2` (stereo not given) [tropine] stands 1300; under `CC(C)(N)CO` [2-amino-2-methyl-1-propanol], 210; under `CCc1ncc(C)[nH]1` [2-ethyl-4-methylimidazole], 280.
As for `CC(C)NCCO` [2-(isopropylamino)ethanol], the “Henry solubility constant Hcp at 313 K” value came out at 110.
`Cn1ccnc1` [1-methyl-1H-imidazole]: the “Henry solubility constant Hcp at 313 K” value worked out at 69.
For `CN(C)CC(O)CO` (stereo not given) [3-(dimethylamino)-1,2-propanediol], the “Henry solubility constant Hcp at 313 K” value was 670.
On to `OCCN1CCCCC1` [1-(2-hydroxyethyl)piperidine], for which the “Henry solubility constant Hcp at 313 K” value was 51.
With `CN1CCC(O)CC1` [4-hydroxy-N-methylpiperidine], the “Henry solubility constant Hcp at 313 K” value came out at 1300.
To `Cc1nccn1C` [1,2-dimethylimidazole] belongs 43.
Turning to `NCc1cccnc1` [3-(aminomethyl)pyridine], the “Henry solubility constant Hcp at 313 K” value is 430.
Consider `CCc1ncc[nH]1` [2-ethylimidazole], for which the “Henry solubility constant Hcp at 313 K” value was 760.
Turning to `CCN(CC)CC(O)CO` (stereo not given) [3-(diethylamino)-1,2-propanediol], the “Henry solubility constant Hcp at 313 K” value is 540.
To `Cc1ncc[nH]1` [2-methyl-1H-imidazole] belongs 810; to `CCC(N)(CO)CO` [2-amino-2-ethyl-1,3-propanediol], 710.
As for `OCCC1CCCCN1` (stereo not given) [2-piperidineethanol], the “Henry solubility constant Hcp at 313 K” value is 390.
